# Reference: patent publication US20260365696A1, “INHIBITORS OF PTP1B / NCK1 INTERACTION AND METHODS OF MAKING AND USING SAME” (Radella Pharmaceuticals LLC, priority 2023, published 2026)
# Assays:
# [1] = Caco-2 permeability assay; assay type: in vitro ADME, human; settings: human, Papp(B-A)/Papp(A-B), 120 min
# Description: (§1) Permeability (Caco-2 assay): Caco 2 cells were used as an in vitro model of the human intestinal epithelium and to permit assessment of the intestinal permeability of potential drugs. Test compound was added to either the apical or basolateral side of a confluent monolayer of Caco 2 cells and permeability was measured by monitoring the appearance of the test compound on the opposite side of the monolayer using LC-MS/MS. When performing a bi-directional assay, the efflux ratio (ER) was calculated from the ratio of B-A and A-B permeabilities.
# (§2) Briefly, Caco 2 cells obtained (ATCC) were used between passage numbers 40 and 60. Cells were seeded on to Transwell plates at 1×10^5 cells/cm^2. The cells were cultured in DMEM and media was changed every two or three days. On day 20, the permeability study was performed. […]
# (§3) Test and control compounds were quantified by LC-MS/MS cassette analysis using a 7-point calibration with appropriate dilution of the samples. […] The starting concentration (C0) was determined from the dosing solution and the experimental recovery was calculated from C0 and both apical and basolateral compartment concentrations.
# (§4) Data Analysis: The permeability coefficient (Papp) for each compound was calculated from the following equation: […]
# (§5) For bi directional experiments, an efflux ratio (ER) was calculated from mean A-B and B-A data using the following equation: […]
# Caco-2 cells = experiment: Caco-2 permeability assay; assay type: in vitro ADME, human
# Description: as §1, §2, §3, §4, §5
# GLUT4 = GLUT4 gene expression in adipose tissue of LDLR−/− mice (qPCR); assay type: in vivo, mouse; settings: 30 mg/kg IP daily, vs control
# Description: (§6) FIGS. 30A-30E are graphs showing expression of various genes in tissues of HFD-fed LDLR−/− mice following 6 weeks of daily IP administration of MD20 (30 mg/kg) or a vehicle control. Mice were fasted for 5 hours at the conclusion of the experiment, liver and white adipose tissue (“WAT”) samples were collected, and gene expression was measured by qRT-PCR. Expression of glucose transporter 4 (GLUT4; FIG. 30A) and stearoyl-CoA-desaturase 1 (SCD1; FIG. 30B) was measured in adipose tissue, and expression of Glucose-6-phosphatase (G6P; FIG. 30C), Activating Transcription Factor 4 (ATF4; FIG. 30D), and 3-hydroxy-3-methylglutaryl (HMGCS; FIG. 30E) was measured in liver tissue. Data represent mean±SEM; statistical differences were determined using two tailed student's t-test.
# (§7) Gene expression analyses: Livers and adipose tissue were collected from 5 h-fasted animals and snap-frozen in liquid nitrogen. RNA was isolated from frozen liver tissue using TRIzole (Sigma, UK) and cDNA was synthesized from 1 μg RNA using bioscript cDNA synthesis kit (Bioline, UK), oligo (dT) 18 (SEQ ID NO: 170), and random hexamer primers.
# (§8) Genes of interest were amplified by quantitative PCR (qPCR) using gene-specific primers and GoTaq qPCR master mix (Promega, Madison, WI, USA).
# SCD1 = SCD1 gene expression in adipose tissue of LDLR−/− mice (qPCR); assay type: in vivo, mouse; settings: 30 mg/kg IP daily, vs control
# Description: as §6, §7, §8
# ATF4 = ATF4 gene expression in liver of LDLR−/− mice (qPCR); assay type: in vivo, mouse; settings: 30 mg/kg IP daily, vs control
# Description: as §6, §7, §8
# HMGCS = HMGCS gene expression in liver of LDLR−/− mice (qPCR); assay type: in vivo, mouse; settings: 30 mg/kg IP daily, vs control
# Description: as §6, §7, §8
substance,measurement,setting,value
"Ac-PRPPKR-NH2 [MD20, Ac-PRPPKR-NH2]",efflux ratio at 2 h,[1],0.252
same,permeation of cells relative to antihypertensive drugs,Caco-2 cells,"able to permeate the cells at the same rate as some antihypertensive drugs (e.g., nicardipine)"
same,GLUT4 gene expression in adipose tissue,GLUT4,increased
same,SCD1 expression in adipose tissue,SCD1,increased
same,ATF4 expression in liver,ATF4,decreased
same,HMGCS expression,HMGCS,upregulated
